# Measurements taken from patent US7718677B2, “Methods and compositions for reduction of side effects of therapeutic treatments” (priority 2007, dated 2010).
# Marks after values point to notes of the source that are not given here.
# Test system: Squirrel (Saimiri sciureus) monkeys with nigrostriatal damage
# Assay: Levodopa-induced dyskinesias in MPTP-lesioned monkeys, nicotine in drinking solution before levodopa (Example 1)
# Format: in vivo
# Conditions: for dyskinetic ratings 3 hours after the afternoon levodopa treatment: scale 0-4, mean ± SE
# Procedure: Animals: Squirrel (Saimiri sciureus) monkeys (n=7) were purchased from World Wide Primates (Miami, Fla.). The animals weighed between 0.6-0.9 kg and were in mid to late adulthood as determined from their general appearance (dentition, fur, other). Female monkeys were used since older animals were available that may better model Parkinson's disease. The animals were placed in quarantine upon arrival, and maintained in a temperature-controlled room (27±3° C.) with a relative humidity>30%, under a 13/11-hour light/dark cycle. Monkey food chow and fruits/vegetables were provided once daily, with water provided ad libitum. The monkeys were housed in separate cages to allow for clear behavioral assessments. The animals were released from quarantine after 1 month and treatments initiated. All procedures conformed to the National Institutes of Health Guide for the Care and Use of Laboratory Animals and were approved by the Institutional Animal Care and Use Committee at the Parkinson's Institute.
# 1-Methyl-4-phenyl-1,2,3,6-tetrahydropyridine (MPTP) administration: Prior to lesioning, the animals were allowed to acclimate to the colony and rated for parkinsonism as described (Langston et al. Ann Neurol. 2000; 47:S79-89). All values were within the normal range. The monkeys were then injected subcutaneously with 2.0 mg/kg MPTP (Sigma, St-Louis, Mo.) dissolved in saline. The animals were rated for parkinsonism 3-4 weeks after MPTP administration. The disability scores ranged from 0 (normal) to 28 for a severely parkinsonian animal. Animals were assessed for 1) spatial hypokinesia (reduction in use of the available cage space), 2) body bradykinesia (increased slowness in body movement), 3) left and 4) right manual dexterity, 5) balance, 6) freezing and 7) action tremor. If they were not parkinsonian, MPTP injection (1.0-2.0 mg/kg) was repeated from 2-5 times for total doses of 3.5 to 13.5 mg/kg. Despite multiple MPTP dosing, two of the animals were not stably parkinsonian.
# Nicotine treatment: All monkeys (n=7) were then given a drinking solution for 3 weeks consisting of commercially available orange Gatorade® to mask nicotine's bitter taste (FIG. 1). The control group (n=4) was continued on Gatorade® only, while nicotine (free base) was added to the Gatorade of the treated group (n=3). Nicotine dosing was started at 50 μg/ml for 1 week, 150 μg/ml for 1 week, with the concentration increased by […] over the next few weeks, up to 650 μg/ml (FIG. 1).
# Levodopa administration: Monkeys were administered levodopa/carbidopa (5 mg/kg and 1.25 mg/kg, respectively), prepared by crushing a tablet of Sinemet® CR 100/25 (DuPont Pharma) and dissolving it in water. This dose of levodopa is within the range of that prescribed to Parkinson's disease patients. The monkeys were gavaged twice daily at 3.5-hour intervals for 8 weeks at a time using a 5-day-on/2-day-off schedule (Hsu et al., J Pharmacol Exp Ther. 2004; 311:770-777). During levodopa treatment, the monkeys were given fruits in the morning and food pellets 3.5 hours after the afternoon levodopa dose to optimize gastrointestinal absorption.
# Dyskinesias were rated from videotapes, as described (Hsu et al., J Pharmacol Exp Ther. 2004; 311:770-777). This included a one hour baseline period (no drugs) from ˜8:00-9:00 AM, followed by two 3.5-hour treatment periods with levodopa starting at ˜9:00 AM and ˜12:30 PM. Dyskinesias were rated for 2-minute periods at 30-minute intervals by two independent raters blinded to treatment. They were rated on a scale of 0 (no dyskinesias) to 4; a score of 1 was indicative of subtle dyskinesias that were not sustained; 2, mild dyskinesias that were sustained; 3, moderate dyskinesias that impaired the ability to remain stationary; 4, severe dyskinesias that were generalized and incapacitating.
# Data analyses: The levodopa treatment protocol used in the present study involved a 5-day-on/2-day-off schedule.
structure (smiles),measurement,setting,value
"CN1CCCC1c1cccnc1 (centres unmarked) [Nicotine, S-3-(1-methyl-2-pyrrolidinyl)pyridine]",total dyskinesias (area under the curve of the time course),all time points vs monkeys not receiving nicotine,significant decrease
same,decline in levodopa-induced dyskinesias,"animals pretreated with nicotine, levodopa naïve monkeys",~60%
same,levodopa-induced dyskinesias over the course of the day (time course),"nicotine up to 650 μg/ml in drinking solution, vs monkeys not receiving nicotine, entire 8-week period",significantly reduced
same,peak dyskinesias (maximal dyskinetic score during the morning or afternoon),throughout the 8-week levodopa treatment vs control,decreased
same,dyskinetic ratings 3 hours after the afternoon levodopa treatment,"week 2/3 of levodopa treatment, levodopa/carbidopa 5/1.25 mg/kg twice daily",0.3 ± 0.3
same,dyskinetic ratings 3 hours after the afternoon levodopa treatment,week 4 of levodopa treatment,0*
same,dyskinetic ratings 3 hours after the afternoon levodopa treatment,week 6 of levodopa treatment,0*
same,dyskinetic ratings 3 hours after the afternoon levodopa treatment,week 8 of levodopa treatment,0.2 ± 0.2
